Results reported in patent US20240270771A1, “Compound containing phosphate group, pharmaceutical composition containing same, preparation method therefor and use thereof” (SHANGHAI RAISING PHARMACEUTICAL CO., LTD., priority 2021, published 2024).

Assays:
[1] = test system: Aβ42; experiment: Aβ42 content in culture supernatant of HEK293APP/sw overexpressing cells (ELISA kit); type: cell-based; details: compound 400 μM, 24 hours, adjusted by total protein concentration, blank control 11.08
Description: (§1) BCA Protein Assay Kit was purchased from Beyotime, Aβ40 and Aβ42 detection kits were purchased from Wako, and cell culture related reagents were purchased from Gibco.
(§2) HEK293APP/sw overexpressing cells were cultured in DMEM medium containing 10% FBS, 100 μg/mL G418 (Geneticin) and 1×Penicillin-Streptomycin in 48-well plates. A 4 mM compound stock solution (prepared by dissolving the compound in DMEM culture medium) was filtered through a 0.22 μm sterile filter and stored at −20° C. for subsequent use. At 70% cell density, 40 μL of the compound test solution was added to each well to reach a final concentration of 400 μM, and the plate was incubated for 24 hours.
(§3) The supernatant of the culture medium was collected. The BCA reagent was added to a part of the supernatant, after incubating at room temperature for 30 min, the absorbance value (i.e., OD value) of each well was determined by a microplate reader at 570 nm. The total protein concentration was calculated according to a protein standard curve. Meanwhile, the other part of the supernatant (100 μL) was added to a coated 96-well plate and incubated overnight at 4° C., after the solution was removed and the reagents were washed, HRP (horseradish peroxidase)-labeled antibody was added and incubated at 4° C. for 2 hours. After the reagents were removed and washed, a TMB chromogenic solution was added, the plate was incubated at room temperature for 30 min, and then a stop solution was added to stop the reaction. The absorbance value (i.e., OD value) of each well was measured by a microplate reader at 450 nm. The concentrations of Aβ40 and Aβ42 were calculated according to the standard curves of Aβ40 and Aβ42, respectively. In the end, the concentrations of Aβ40 and Aβ42 were adjusted by the total protein concentration, so as to obtain the final concentration.

[2] = Acute toxicity test, gavage to mice; type: in vivo, Kunming strain mice; details: male mice; for Body weight before administration (mean ± standard deviation): baseline before gavage 2000 mg/kg once a day; for Body weight on Day 7 (mean ± standard deviation) / Body weight on Day 14 (mean ± standard deviation): gavage 2000 mg/kg once a day
Description: CMC-Na (sodium carboxymethylcellulose) was purchased from Shanghai Sinopharm Chemical Reagent Co., Ltd.
The test animals were Kunming strain mice, 18-20 g, provided by Beijing Keao Xieli Feed Co., Ltd.
• 1) Preparation of 0.7% CMC-Na: 0.7 g CMC-Na was added with distilled water to prepare a 0.7 g/100 mL solution. • 2) The compound to be tested was added to 0.7% CMC-Na to prepare a 100 mg/mL suspension. • 3) Each test group comprised 10 mice, all of which were male. Each mouse was orally administered with the test compound (2000 mg/kg) by gavage, once a day, for a cumulative period of 15 days. […] The body weights were recorded on the day of administration, days 7 and 14. 2.3. Test results

[3] = test system: Aβ40; experiment: Aβ40 content in culture supernatant of HEK293APP/sw overexpressing cells (ELISA kit); type: cell-based; details: compound 400 μM, 24 hours, adjusted by total protein concentration, blank control 127.81
Description: as §1, §2, §3

[4] = test system: sodium nitrite-induced hypoxic memory impairment model; experiment: Jumping stand test, sodium nitrite-induced hypoxic memory impairment model; type: in vivo, ICR mice; details: sodium nitrite 120 mg/kg s.c., compound 200 mg/kg gavage once a day 3 weeks; for Number of errors: model group 1.4 ± 0.7; for Latency period: model group 93.8 ± 90.25
Description: (§4) The mice employed in the present test were purchased from Xipuer-BIKAI Laboratory Animal Co., Ltd., and they were SPF grade ICR mice, 3-4 weeks old, weighing 16-18 g.
Sodium nitrite (NaNO2) was purchased from Sinopharm Chemical Reagent Co., Ltd.; Product No.: 10020018; Specification: analytical grade.
(§5) Test article preparation: 100 mg of the compound to be tested was weighed and added to 10 mL of 0.7% CMC-Na to prepare a 10 mg/mL suspension for use.
(§6) The laboratory mice were randomly divided into groups (9 or 10 mice per group). The mice in each group were administrated at a dosage of 0.2 mL/10 g body weight by oral gavage once a day for three weeks.
(§7) The laboratory animals were administered by gavage for 3 consecutive weeks according to the above administration dosage/specification. Training was started on the last day of administration, and the test was conducted 24 hours later.
The laboratory animals were administered by gavage for three weeks. One hour after the last administration, the animals were trained with YLS-3 TB jumping stand detector. After the training, sodium nitrite (mouse: 120 mg/kg) was injected subcutaneously (in the neck) immediately. The jumping stand test was conducted 24 hours later. The latency period (the time from the start of counting to the first time of jumping off the stand) and the number of errors (the number of electric shock) were recorded.
(§8) The YLS-3 TB jumping stand detector were divided into five compartments by transparent boards. The bottom of the compartment was covered with a copper grid and applied with a voltage of 50 V A rubber pad stand with a height of 3.5 cm and a diameter of 3.5 cm was placed in each compartment to serve as a safe area for mice to avoid electric shock. Training of laboratory mice before the formal test: the laboratory mice were placed in the small compartment with a stand to get familiar with the environment for 5 min (the five compartments were connected), and then electrified for stimulation (all the laboratory mice were on the grid at this time), at the voltage of 50 V and current of 1.00 mA. Mice have the habit of jumping from a high place. If they jump, they will be shocked to produce memory. The current was applied for 5 min, which served as the training process.
(§9) Testing: the animals were put on the stand in the jumping compartment one by one. The time interval for putting each animal was 5 s. After the first animal was put on the stand, the electricity was applied immediately. The electricity was applied for 6 min. At the end of applying electricity, data were printed, and the latency period (the time from the start of counting to the first time of jumping off the stand) and the number of errors (the number of electric shock during the testing period) were recorded. Due to the different time of putting the animal in, the time difference can be subtracted according to the actual time of putting the animal.

[5] = test system: scopolamine-induced acute memory dysfunction model; experiment: Jumping stand test, scopolamine-induced acute memory dysfunction model; type: in vivo, ICR mice; details: scopolamine 2 mg/kg i.p., compound 200 mg/kg gavage once a day 3 weeks; for Number of errors: model group 1.7 ± 0.5; for Latency period: model group 68.5 ± 80.0
Description: as §4
Scopolamine hydrobromide trihydrate was purchased from aladdin, Product No.: S107418; Purity: 98%.
as §5, §6, §7
The laboratory animals were administered by gavage for 3 weeks, and scopolamine (mouse: 2 mg/kg) was injected intraperitoneally 0.5 hour after the last dose. The animals were trained with YLS-3 TB jumping stand detector and tested for memory acquisition function after 24 hours. The latency period (the time from the start of counting to the first time of jumping off the stand) and the number of errors (the number of electric shock) were recorded.
as §8
as §9, with “Due to the different time of putting the animal in, the time difference can be subtracted according to the actual time of putting the animal.” left out

C/C(=C(\CCOP(=O)(O)O)SC(=O)c1ccco1)N(C=O)Cc1cnc(C)nc1N [Compound 9, (Z)—S-(2-(N-((4-amino-2-methylpyrimidin-5-yl)methyl)formamido)-5-(phosphonooxy)pent-2-en-3-yl) furan-2-carbothioate]
The content of Aβ42 [1]: 2.94 pmol/L
Body weight before administration (mean ± standard deviation) [2]: 32.1 ± 1.7 g
Body weight on Day 7 (mean ± standard deviation) [2]: 35.7 ± 1.4 g
Body weight on Day 14 (mean ± standard deviation) [2]: 36.3 ± 1.7 g
The content of Aβ40 [3]: 42.88 pmol/L
Number of errors [4]: 0.6 ± 0.7
Latency period [4]: 209.3 ± 110.4 s

CCC(CC)C(=O)S/C(CCOP(=O)(O)O)=C(/C)N(C=O)Cc1cnc(C)nc1N [Compound 2, (Z)—S-(2-(N-((4-amino-2-methylpyrimidin-5-yl)methyl)formamido)-5-(phosphonooxy)pent-2-en-3-yl) 2-ethylbutanethioate]
Number of errors [5]: 0.9 ± 0.7
Latency period [5]: 173.2 ± 98.7 s
The content of Aβ42 [1]: 3.34 pmol/L
The content of Aβ40 [3]: 37.39 pmol/L
Number of errors [4]: 0.6 ± 0.8
Latency period [4]: 210.4 ± 117.3 s

CCCC(CCC)C(=O)S/C(CCOP(=O)(O)O)=C(/C)N(C=O)Cc1cnc(C)nc1N [Compound 1, (Z)—S-(2-(N-((4-amino-2-methylpyrimidin-5-yl)methyl)formamido)-5-(phosphonooxy)pent-2-en-3-yl) 2-propylpentanethioate]
Number of errors [5]: 0.8 ± 0.8
Latency period [5]: 180.0 ± 105.9 s
The content of Aβ42 [1]: 3.32 pmol/L
Body weight before administration (mean ± standard deviation) [2]: 31.4 ± 1.1 g
Body weight on Day 7 (mean ± standard deviation) [2]: 35.5 ± 1.0 g
Body weight on Day 14 (mean ± standard deviation) [2]: 36.7 ± 1.2 g
The content of Aβ40 [3]: 41.18 pmol/L
Number of errors [4]: 0.4 ± 0.7
Latency period [4]: 228.8 ± 155.9 s
